Data published in publication doi:10.1101/2022.02.23.481635v1 (biorxiv, 2022).

How the values were obtained:
Format in all cases: binding
[1] = biological target: T1, 14-3-3σ/TAZ complex (Homo sapiens, UniProt P31947+Q9GZV5); experiment: STD NMR; conditions: 300 μM fragment, 10 μM 14-3-3σ, 100 μM TAZ peptide, relative to apo-14-3-3σ
[2] = biological target: T1, 14-3-3σ/TAZ complex; experiment: STD NMR dose response
[3] = biological target: 14-3-3/ABL1 complex (Homo sapiens, UniProt P00519+P31947); experiment: STD NMR dose response
14-3-3/ABL1 complex, sequence (P31947 whole entry, other chains not shown): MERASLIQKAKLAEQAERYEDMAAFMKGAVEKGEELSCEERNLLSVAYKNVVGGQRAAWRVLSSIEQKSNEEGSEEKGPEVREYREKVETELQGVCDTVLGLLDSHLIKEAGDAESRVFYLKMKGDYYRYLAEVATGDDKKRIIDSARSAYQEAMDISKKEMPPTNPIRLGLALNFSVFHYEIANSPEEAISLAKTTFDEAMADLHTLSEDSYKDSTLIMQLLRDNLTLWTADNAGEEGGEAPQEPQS

T1 sequence (P31947 whole entry, other chains not shown, the tested form may be a part): as the sequence (P31947 whole entry, other chains not shown) above

CCN1CCN(c2cc(C(=N)N)ccn2)CC1 [F4]
fold STD signal (I+peptide / I-peptide) [1]: 1.9 fold

COC(=O)c1cccc(C(=N)N)c1 [F5]
EC50 [2]: 1800 ± 400 µM | EC50 [3]: 8700 ± 400 µM

N=C(N)c1cc2ccccc2o1 [F9]
EC50 [2]: 2300 ± 300 µM
